One block for each molecule: values may come before it.
Key:
[1] = system: Ba/F3 cells transfected with FLT3 WT; test: Cytotoxicity in isogenic transfected Ba/F3 cells (Table 4); type: cell-based, Murin; conditions: Mus musculus, BaF3; n = 3; read-out: IC50 in Transfected Ba/F3 cells, FLT3 WT
[2] = system: Ba/F3 cells transfected with FLT3 ITD-F691L; test: as above; type: cell-based, Murin; conditions: Mus musculus, BaF3; n = 3; read-out: IC50 in Transfected Ba/F3 cells, FLT3 ITD-F691L
[3] = system: Ba/F3 cells transfected with FLT3 D835Y; test: as above; type: cell-based, Murin; conditions: Mus musculus, BaF3; n = 3; read-out: IC50 in Transfected Ba/F3 cells, FLT3 D835Y
[4] = system: Ba/F3 cells transfected with FLT3 ITD; test: as above; type: cell-based, Murin; conditions: Mus musculus, BaF3; n = 3; read-out: IC50 in Transfected Ba/F3 cells, FLT3 ITD
[5] = system: Ba/F3 cells transfected with FLT3 ITD-D835Y; test: as above; type: cell-based, Murin; conditions: Mus musculus, BaF3; n = 3; read-out: IC50 in Transfected Ba/F3 cells, FLT3 ITD-D835Y
[6] = system: MOLM13 (FLT3-ITD, t(9:11)); test: Antiproliferative activity (Table 6); type: cell-based; conditions: Homo sapiens, MOLM-13; MOLM13; 48 h (Gilteritinib); read-out: IC50
[7] = system: Ba/F3-ITD + 691 (ITD + F691L); test: Antiproliferative activity (Table 6); type: cell-based, Murin; conditions: Ba/F3-ITD + 691 (ITD + F691L); 48 h (Gilteritinib); read-out: IC50
Ba/F3-FLT3 (FLT3-WT) = test: Antiproliferative activity (Table 6); type: cell-based, Murin; conditions: Ba/F3-FLT3, FLT3-WT; 48 h (Gilteritinib); read-out: IC50
Kasumi-1 (FLT3-WT) = test: Antiproliferative activity (Table 6); type: cell-based; conditions: Homo sapiens; Kasumi-1; 48 h (Gilteritinib); read-out: IC50
THP-1 (FLT3-WT, t(9:11)) = test: Antiproliferative activity (Table 6); type: cell-based; conditions: Homo sapiens; THP-1; 48 h (Gilteritinib); read-out: IC50
[8] = system: Ba/F3-ITD + 842 (ITD + Y842C); test: Antiproliferative activity (Table 6); type: cell-based, Murin; conditions: Ba/F3-ITD + 842 (ITD + Y842C); 48 h (Gilteritinib); read-out: IC50
[9] = system: MOLM14 (FLT3-ITD, t(9:11)); test: Antiproliferative activity (Table 6); type: cell-based; conditions: Homo sapiens, MOLM-14; MOLM14; 48 h (Gilteritinib); read-out: IC50
[10] = system: Ba/F3-ITD + D835H (FLT3-ITD + D835H); test: Antiproliferative activity (Table 6); type: cell-based, Murin; conditions: Ba/F3-ITD + D835H; 48 h (Gilteritinib); read-out: IC50
[11] = system: MV4-11 (FLT3-ITD, t(4:11)); test: Antiproliferative activity (Table 6); type: cell-based; conditions: Homo sapiens; MV4-11; 48 h (Gilteritinib); read-out: IC50
Ba/F3-D835Y (FLT3-D835Y) = test: Antiproliferative activity (Table 6); type: cell-based, Murin; conditions: Ba/F3-D835Y; 48 h (Gilteritinib); read-out: IC50
Ba/F3-D835G (FLT3-D835G) = test: Antiproliferative activity (Table 6); type: cell-based, Murin; conditions: Ba/F3-D835G; 48 h (Gilteritinib); read-out: IC50
Ba/F3-ITD (FLT3-ITD) = test: Antiproliferative activity (Table 6); type: cell-based, Murin; conditions: Ba/F3-ITD; 48 h (Gilteritinib); read-out: IC50
[12] = system: Ba/F3-ITD + D835Y (FLT3-ITD + D835Y); test: Antiproliferative activity (Table 6); type: cell-based, Murin; conditions: Ba/F3-ITD + D835Y; 48 h (Gilteritinib); read-out: IC50
ITK = ITK (Homo sapiens, UniProt Q08881); test: Key off-targets (Table 8); type: biochemical
BTK WT = BTK WT (Homo sapiens, UniProt Q06187); test: Comparative potency against BTK (Table 8); type: biochemical; conditions: Table 8, wild-type BTK
BTK C481S = BTK C481S (Homo sapiens, UniProt Q06187, C481S); test: Comparative potency against BTK (Table 8); type: biochemical; conditions: x printed without key
Sequence of BTK C481S (Q06187 whole entry C481S): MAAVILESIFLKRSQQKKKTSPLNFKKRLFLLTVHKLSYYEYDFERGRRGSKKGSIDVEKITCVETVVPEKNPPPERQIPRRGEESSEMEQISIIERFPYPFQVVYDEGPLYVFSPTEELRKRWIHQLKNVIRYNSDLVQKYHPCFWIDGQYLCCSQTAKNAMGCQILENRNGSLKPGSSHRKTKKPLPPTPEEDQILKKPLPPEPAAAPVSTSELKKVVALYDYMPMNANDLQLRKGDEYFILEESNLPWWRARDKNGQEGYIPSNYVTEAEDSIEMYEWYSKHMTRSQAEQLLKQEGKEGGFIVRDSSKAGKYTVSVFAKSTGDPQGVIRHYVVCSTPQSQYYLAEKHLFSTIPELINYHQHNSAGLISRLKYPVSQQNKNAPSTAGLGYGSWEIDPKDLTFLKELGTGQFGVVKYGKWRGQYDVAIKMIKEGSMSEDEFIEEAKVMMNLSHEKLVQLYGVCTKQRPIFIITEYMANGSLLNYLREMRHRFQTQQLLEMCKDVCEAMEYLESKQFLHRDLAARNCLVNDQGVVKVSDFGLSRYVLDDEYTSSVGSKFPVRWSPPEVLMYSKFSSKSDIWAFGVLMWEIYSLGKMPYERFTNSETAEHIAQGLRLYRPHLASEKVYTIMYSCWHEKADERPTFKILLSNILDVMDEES

Sequence of ITK (Q08881 whole entry): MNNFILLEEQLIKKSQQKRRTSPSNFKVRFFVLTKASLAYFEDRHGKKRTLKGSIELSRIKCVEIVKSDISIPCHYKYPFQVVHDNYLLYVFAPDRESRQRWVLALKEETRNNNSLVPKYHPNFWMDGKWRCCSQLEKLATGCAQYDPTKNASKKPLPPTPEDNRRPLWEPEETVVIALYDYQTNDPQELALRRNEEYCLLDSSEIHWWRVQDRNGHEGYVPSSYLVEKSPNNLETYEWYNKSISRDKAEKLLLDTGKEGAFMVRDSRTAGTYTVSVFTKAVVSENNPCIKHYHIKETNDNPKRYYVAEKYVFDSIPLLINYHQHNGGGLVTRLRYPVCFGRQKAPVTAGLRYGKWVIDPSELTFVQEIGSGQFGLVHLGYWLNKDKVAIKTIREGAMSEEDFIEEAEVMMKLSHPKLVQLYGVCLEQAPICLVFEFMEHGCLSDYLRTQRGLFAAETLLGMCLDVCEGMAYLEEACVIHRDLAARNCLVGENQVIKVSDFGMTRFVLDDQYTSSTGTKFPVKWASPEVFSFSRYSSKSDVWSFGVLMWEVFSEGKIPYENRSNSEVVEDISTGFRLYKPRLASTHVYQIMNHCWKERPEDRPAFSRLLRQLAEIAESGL
Sequence of BTK WT (Q06187 whole entry): as the sequence (Q06187 whole entry C481S) above, with S481C counted along it

Compound: CC1(COc2ccc3c(c2)ncn3-c2ccc3cccc(N4CCC(N)CC4)c3n2)COC1 [Crenolanib]
IC50 [1]: 2620 nM
IC50 [2]: 258 nM
IC50 [3]: 889 nM
IC50 [4]: 35 nM
IC50 [5]: 31.7 nM

IC50 [6]: 35.8 nM
IC50 [7]: 119 nM
IC50 (Ba/F3-FLT3 (FLT3-WT)): 79.5 nM
IC50 (THP-1 (FLT3-WT, t(9:11))): 2300 nM
IC50 [8]: 44.7 nM
IC50 [9]: 58.8 nM
IC50 [10]: 10.4 nM
IC50 [11]: 176 nM
IC50 (Ba/F3-D835Y (FLT3-D835Y)): 373 nM
IC50 (Ba/F3-D835G (FLT3-D835G)): 28.1 nM
IC50 (Ba/F3-ITD (FLT3-ITD)): 36.2 nM
IC50 [12]: 10.6 nM
Compound: CCc1nc(C(N)=O)c(Nc2ccc(N3CCC(N4CCN(C)CC4)CC3)c(OC)c2)nc1NC1CCOCC1 [Gilteritinib, reference compound]
IC50 (Kasumi-1 (FLT3-WT)): 2230 nM
IC50 [1]: 500 nM
IC50 [2]: 98.4 nM
IC50 [3]: 472 nM
IC50 [4]: 26.5 nM
IC50 [5]: 6.8 nM

IC50 (ITK): 49 nM
IC50 (BTK WT): 0.4 nM
IC50 (BTK C481S): 4.5 nM
Compound: NC(=O)[C@H]1CCN(c2ncnc(N)c2F)C[C@@H]1N1CCC[C@@H](Nc2cc(Cl)cc(C(F)(F)F)c2)C1=O [SNS-062, reference compound]

Source: patent publication US20180344702A1, “METHODS FOR TREATING PATIENTS WITH HEMATOLOGIC MALIGNANCIES” (Aptose Biosciences, Inc., priority 2017, published 2018)
